Source: ChEMBL document CHEMBL1201862, “PubChem BioAssay data set” (2004)
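Tested at 5 concentrations; 48 h exposure; 96-well plates; endpoints linearly interpolated, else capped at highest concentration. At the GI50, growth is halved.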 Calls of active or inactive are those of the source. Cut-off read from the data, not from the text of the source: active = GI50 up to about 1.1 µM and inactive = higher.

Experiments:
Assay in all cases: NCI anticancer screen, dose series, 48 h
OVCAR-8 = system: OVCAR-8
DLD-1 = system: DLD-1
KM-20L2 = system: KM-20L2
SF-539 = system: SF-539
K562 = system: K562
A549 = system: A549
CAKI-1 = system: CAKI-1
COLO 205 = system: COLO 205
TK-10 = system: TK-10
SK-OV-3 = system: SK-OV-3
U-251 = system: U-251
RXF 393 = system: RXF 393
M14 = system: M14
Malme-3M = system: Malme-3M
HCT-116 = system: HCT-116
ACHN = system: ACHN
IGROV-1 = system: IGROV-1

| Structure (SMILES) | GI50 (OVCAR-8) | GI50 (DLD-1) | GI50 (KM-20L2) | GI50 (SF-539) | GI50 (K562) | GI50 (A549) | GI50 (CAKI-1) | GI50 (COLO 205) | GI50 (TK-10) | GI50 (SK-OV-3) | GI50 (U-251) | GI50 (RXF 393) | GI50 (M14) | GI50 (Malme-3M) | GI50 (HCT-116) | GI50 (ACHN) | GI50 (IGROV-1) |
| --- | --- | --- | --- | --- | --- | --- | --- | --- | --- | --- | --- | --- | --- | --- | --- | --- | --- |
| COc1cc(C=C2C(=O)NC(=O)NC2=O)cc(OC)c1OC | > 100 µM (inactive) | > 100 µM (inactive) | > 100 µM (inactive) | > 100 µM (inactive) | > 100 µM (inactive) | > 100 µM (inactive) | > 100 µM (inactive) | > 100 µM (inactive) | > 100 µM (inactive) | > 100 µM (inactive) | > 100 µM (inactive) | > 100 µM (inactive) | > 100 µM (inactive) | > 100 µM (inactive) | > 100 µM (inactive) | > 100 µM (inactive) | – |
| CCOC(=O)C(C(CC(=O)OC)NC(=O)OCc1ccccc1)C1(C)OCCO1 (configuration not stated) | > 100 µM (inactive) | > 100 µM (inactive) | > 100 µM (inactive) | > 100 µM (inactive) | > 100 µM (inactive) | > 100 µM (inactive) | – | > 100 µM (inactive) | > 100 µM (inactive) | – | > 100 µM (inactive) | > 100 µM (inactive) | > 100 µM (inactive) | > 100 µM (inactive) | > 100 µM (inactive) | > 100 µM (inactive) | > 100 µM (inactive) |
| CCCCN(CCCC)C(=Nc1ccccc1)N(CCCC)CCCC | 9.25 µM (inactive) | 6.38 µM (inactive) | 0.851 µM (active) | 11.4 µM (inactive) | 2.09 µM (inactive) | 7.62 µM (inactive) | – | 2.77 µM (inactive) | 10.1 µM (inactive) | 8.43 µM (inactive) | 1.95 µM (inactive) | 5.02 µM (inactive) | – | 7.94 µM (inactive) | 1.67 µM (inactive) | 3.55 µM (inactive) | 3.15 µM (inactive) |
| O=C(c1ccccc1)C1S(=O)(=O)OCCOS1(=O)=O | > 100 µM (inactive) | > 100 µM (inactive) | – | > 100 µM (inactive) | > 100 µM (inactive) | > 100 µM (inactive) | > 100 µM (inactive) | > 100 µM (inactive) | > 100 µM (inactive) | > 100 µM (inactive) | – | – | > 100 µM (inactive) | > 100 µM (inactive) | > 100 µM (inactive) | – | > 100 µM (inactive) |
| Cc1ccc(NC(=O)OCC(COc2ccc(Cl)cc2Cl)OC(=O)Nc2ccc(C)cc2)cc1 (configuration not stated) | 12.5 µM (inactive) | > 100 µM (inactive) | > 100 µM (inactive) | 89.5 µM (inactive) | – | > 100 µM (inactive) | < 0.01 µM (active) | > 100 µM (inactive) | – | > 100 µM (inactive) | 34.8 µM (inactive) | 79.4 µM (inactive) | > 100 µM (inactive) | > 100 µM (inactive) | > 100 µM (inactive) | > 100 µM (inactive) | > 100 µM (inactive) |
| CCOC(=O)CC(=O)Sc1ccccc1 | 16.9 µM (inactive) | 20 µM (inactive) | 21.2 µM (inactive) | 14 µM (inactive) | 19.4 µM (inactive) | 14.6 µM (inactive) | – | 25.9 µM (inactive) | 38.3 µM (inactive) | 24.5 µM (inactive) | 12.4 µM (inactive) | 10.3 µM (inactive) | 14.2 µM (inactive) | 25.6 µM (inactive) | 12.6 µM (inactive) | 23.1 µM (inactive) | 12.5 µM (inactive) |
| COc1ccccc1NC(=O)CC(=O)n1nc(C)c(/N=N/c2ccccc2C(=O)O)c1C | > 100 µM (inactive) | > 100 µM (inactive) | > 100 µM (inactive) | > 100 µM (inactive) | 97.1 µM (inactive) | > 100 µM (inactive) | 47.1 µM (inactive) | > 100 µM (inactive) | > 100 µM (inactive) | > 100 µM (inactive) | 95.7 µM (inactive) | – | > 100 µM (inactive) | > 100 µM (inactive) | > 100 µM (inactive) | – | > 100 µM (inactive) |
| O=C1C2c3[nH]c4ccccc4c3C3CCCCCCC3C2C(=O)N1c1ccccc1 (configuration not stated) | 4.32 µM (inactive) | > 10 µM (inactive) | – | 12 µM (inactive) | 4.52 µM (inactive) | 8.65 µM (inactive) | – | 7.64 µM (inactive) | 12 µM (inactive) | 2.44 µM (inactive) | 4.46 µM (inactive) | 7.74 µM (inactive) | 6.85 µM (inactive) | 3.33 µM (inactive) | – | 8.24 µM (inactive) | > 10 µM (inactive) |
| Cc1ccc(/C=N/NS(=O)(=O)c2ccccc2)cc1C | > 100 µM (inactive) | > 100 µM (inactive) | > 100 µM (inactive) | > 100 µM (inactive) | > 100 µM (inactive) | > 100 µM (inactive) | 68.7 µM (inactive) | > 100 µM (inactive) | > 100 µM (inactive) | > 100 µM (inactive) | > 100 µM (inactive) | > 100 µM (inactive) | > 100 µM (inactive) | > 100 µM (inactive) | 76 µM (inactive) | > 100 µM (inactive) | 51.5 µM (inactive) |
| CC(=O)OCCC(O[Si](c1ccccc1)(c1ccccc1)C(C)(C)C)C(C)(C)O (configuration not stated) | 38.9 µM (inactive) | – | 32.3 µM (inactive) | 25.4 µM (inactive) | 31.6 µM (inactive) | 34.5 µM (inactive) | – | 15.8 µM (inactive) | 34.4 µM (inactive) | 42.7 µM (inactive) | 36.3 µM (inactive) | 17.6 µM (inactive) | 39 µM (inactive) | > 100 µM (inactive) | 17.3 µM (inactive) | 29.4 µM (inactive) | 36.3 µM (inactive) |
| O=C1C2C=CC(n3[nH]c(=O)n(Cc4ccccc4)c3=O)CC2C(=O)N1c1ccc(Br)cc1 (configuration not stated) | > 100 µM (inactive) | > 100 µM (inactive) | > 100 µM (inactive) | > 100 µM (inactive) | > 100 µM (inactive) | > 100 µM (inactive) | > 100 µM (inactive) | > 100 µM (inactive) | > 100 µM (inactive) | > 100 µM (inactive) | > 100 µM (inactive) | > 100 µM (inactive) | > 100 µM (inactive) | > 100 µM (inactive) | > 100 µM (inactive) | > 100 µM (inactive) | > 100 µM (inactive) |
| CCCCCOCC(O)CO (configuration not stated) | > 100 µM (inactive) | > 100 µM (inactive) | > 100 µM (inactive) | > 100 µM (inactive) | – | > 100 µM (inactive) | > 100 µM (inactive) | > 100 µM (inactive) | > 100 µM (inactive) | – | > 100 µM (inactive) | > 100 µM (inactive) | – | > 100 µM (inactive) | > 100 µM (inactive) | > 100 µM (inactive) | > 100 µM (inactive) |
| O=C(CC1(O)C(=O)Nc2ccccc21)c1ccc(Cl)cc1Cl (configuration not stated) | > 100 µM (inactive) | > 100 µM (inactive) | > 100 µM (inactive) | > 100 µM (inactive) | > 100 µM (inactive) | > 100 µM (inactive) | > 100 µM (inactive) | > 100 µM (inactive) | > 100 µM (inactive) | > 100 µM (inactive) | – | > 100 µM (inactive) | > 100 µM (inactive) | > 100 µM (inactive) | > 100 µM (inactive) | > 100 µM (inactive) | > 100 µM (inactive) |
| N#CC(C(=O)CCC(=O)Nc1ccc(Cl)c(Cl)c1)c1ccc(Cl)cc1 (configuration not stated) | > 100 µM (inactive) | 55.5 µM (inactive) | 15 µM (inactive) | > 100 µM (inactive) | 14.6 µM (inactive) | 84.9 µM (inactive) | 37.3 µM (inactive) | – | > 100 µM (inactive) | – | > 100 µM (inactive) | > 100 µM (inactive) | 51.4 µM (inactive) | > 100 µM (inactive) | > 100 µM (inactive) | 17.4 µM (inactive) | 80 µM (inactive) |
| CCOc1ccc(NC(=O)C2=C(C)NC(C)=C(C(=O)Nc3ccc(OCC)cc3)C2c2ccc([N+](=O)[O-])cc2)cc1 | 35 µM (inactive) | 25.9 µM (inactive) | 20 µM (inactive) | 24.3 µM (inactive) | 23.3 µM (inactive) | 17.9 µM (inactive) | 30 µM (inactive) | 17.8 µM (inactive) | 17.9 µM (inactive) | > 100 µM (inactive) | 27.8 µM (inactive) | 14 µM (inactive) | 23.7 µM (inactive) | 24.4 µM (inactive) | – | 21.1 µM (inactive) | 49 µM (inactive) |
| O=C1C2CCC(C2)C12CC1(c3ccccc3)C(=O)c3ccccc3N1O2 (configuration not stated) | > 100 µM (inactive) | > 100 µM (inactive) | > 100 µM (inactive) | > 100 µM (inactive) | > 100 µM (inactive) | > 100 µM (inactive) | – | > 100 µM (inactive) | – | > 100 µM (inactive) | > 100 µM (inactive) | > 100 µM (inactive) | > 100 µM (inactive) | > 100 µM (inactive) | > 100 µM (inactive) | > 100 µM (inactive) | > 100 µM (inactive) |
| O=c1[nH]c(=O)n(C2OC(CO)C(O)C2O)cc1OCC(F)(F)F (configuration not stated) | > 100 µM (inactive) | > 100 µM (inactive) | > 100 µM (inactive) | > 100 µM (inactive) | > 100 µM (inactive) | > 100 µM (inactive) | > 100 µM (inactive) | > 100 µM (inactive) | > 100 µM (inactive) | > 100 µM (inactive) | > 100 µM (inactive) | > 100 µM (inactive) | > 100 µM (inactive) | > 100 µM (inactive) | > 100 µM (inactive) | > 100 µM (inactive) | > 100 µM (inactive) |
| CC(=O)OC(C[C@H](C)[C@@H]1CC[C@]2(C)C3=CCC4C(C)(C)C(=O)CC[C@]4(C)C3CCC12C)C1OC1(C)C (some centres not stated) | 28.8 µM (inactive) | 29.7 µM (inactive) | 25.5 µM (inactive) | 41.4 µM (inactive) | 7.24 µM (inactive) | 21.2 µM (inactive) | – | 19.9 µM (inactive) | 19.1 µM (inactive) | 13 µM (inactive) | 21.9 µM (inactive) | 15.1 µM (inactive) | 20.1 µM (inactive) | 25.1 µM (inactive) | 18.2 µM (inactive) | 11.5 µM (inactive) | 21.9 µM (inactive) |
